Structures can show the parent of a compound that is named as a salt. Where two headings read alike, the source gives them in different places. Marks after values point to notes of the source that are not given here.
How the values were obtained:
[1] = Solubility of escitalopram and paroxetine in liquid lipids; assay type: physicochemical; settings: 24 h stirring at 25°C, n = 3, mean ± SD; for solubility at 24 h: oil or lipid, thermodynamic from solid
Protocol: Briefly, 0.5 g of solid lipid Precirol® ATO 5 was melted in a controlled temperature water bath at 65°C. […] Regarding liquid lipids (oleic acid, Labrasol®, Labrafac™ PG, Lauroglycol™ 90, and Miglyol® 812 N), both drugs were dispersed in screw-capped tubes with the liquid compounds (0.5 ml each) and kept under mechanical stirring for 24 h at 25°C. […] An aliquot of the supernatant was diluted with the mobile phase, filtered through a 0.22-µm membrane, and analyzed. […] The HPLC-DAD apparatus and data acquisition were controlled by using Lab Solutions Software (Shimadzu Corporation, Tokyo, Japan). […] The mobile phase was composed of 20 mM phosphate buffer (pH 3.8 adjusted with orthophosphoric acid) and acetonitrile (80:20, v/v) pumped at a flow rate of 1.0 ml/min.

[2] = In vivo pharmacokinetics in plasma, brain and lung after IV, IN and IN + BorNLC co-administration; set-up: species or system CD-1 mice; settings: for Cmax / Tmax / Kp / AUC(0-t): CD-1, mouse
Protocol: Healthy adult CD-1 mice (25–30 g) were acquired from Charles River Laboratories (L’Arbresle, France) and accommodated in a relative humidity of 55 ± 5%, a controlled temperature of 20 ± 2°C, and reversed 12 h light–dark cycles. The studies were always performed in the dark phase (active phase between 08h00 and 20h00). A period of at least 7 days was considered for the animals to become familiarized with the environment. Animals had ad libitum access to food (4RF21, Mucedola®, Italy) and tap water during the entire experiment period.
Before treatment, animals were anesthetized by intraperitoneal administration of a mixture of ketamine (100 mg/kg) and xylazine (10 mg/kg) to keep them immobile during IN or IV administration. Animals were randomly divided into 3 groups (n = 28) and subdivided into 7 time-points (n = 4). […] Briefly, Pluronic F-127 (18%, w/v) and Carbopol 974P (0.2%, w/v) were added to cold water, since the first guarantees the thermoreversible characteristic of the nasal gel ([Swamy and Abbas, 2012]) and the second increases the bioadhesive properties of the gel, thus increasing the residence time in the nasal cavity and improving the central delivery of antidepressant drugs. […] Anesthetized animals were instilled with 14–25 µl (2.38 mg/kg) of the gel with a polyurethane tube (24G x 19 mm) attached to a microliter syringe. Formulation delivery was performed into one of the nostrils, where the tube was inserted about 10 mm deep.
Animals were sacrificed by cervical dislocation and decapitation at 5, 15, 30, 60, 120, 240, and 480 min after administration, and heparinized tubes were used for blood collection. Blood samples were centrifuged at 1,252 g for 10 min at 4°C, and plasma supernatants were analyzed by HPLC-DAD. The mice brain and lungs were quickly removed and gently cleaned with a sterile gauze humidified with saline to remove adherent surface blood. Then, these organs were weighed and homogenized in NaCl 0.9% (3 ml/g of tissue) using a tissue homogenizer with a Teflon® pestle from Thomas Scientific (Swedesboro, NJ, United States).
Briefly, 300 μl of methanol were added to 200 μl of plasma, 200 μl of lung homogenate, or 400 μl of brain homogenate for protein precipitation. After two extractions with 700 μl of n-hexane:alcohol isoamyl (98:2, v/v) mixture, organic phases were evaporated. Last, following reconstitution with 100 μl of a mixture of 20 mM phosphate buffer pH 3.8 and acetonitrile (70:30, v/v), the plasma and lung homogenate samples were transferred to a 0.22-μm Costar® Spin-X® centrifugal filter (Corning, Inc., NY, United States) and centrifuged at 12,100 g for 3 min. All final samples were injected (20 µl) into the HPLC-DAD system, in accordance with the analytical conditions described in section 2.2.1. The detection wavelength to quantify the IS was set at 290 nm.
The remaining pharmacokinetic parameters were estimated by non-compartmental analysis using WinNonlin® version 6.4 software (Certara, Princeton, NJ). Plasma and tissue concentrations below the lower limit of quantification (LLOQ) of the analytical method were considered zero for the pharmacokinetic data analysis.
For both drugs and in all matrices, the area under the concentration–time curve from time zero (AUC) to the time of the last measurable drug concentration (AUCt) was calculated by the linear trapezoidal rule.
To evaluate drug distribution into the brain and lungs after administration, the ratios were determined based on the quotient AUCt(tissue)/AUCt(plasma). The drug targeting efficiency (DTE) was calculated following Eq. 6: DTE(%)=(AUCt(brain)/AUCt(plasma))IN/(AUCt(brain)/AUCt(plasma))IV×100 (6)
Finally, to evaluate the direct drug passage from the nose to the brain, the direct transport percentage (DTP) was determined applying Eq. 7: DTP(%)=AUCt(brain) IN−[(AUCt(brain) IV/AUCt(plasma) IV)×AUCt(plasma) IN]/AUCbrain IN×100 (7)

[3] = set-up: method as in Kreilgaard et al., 2008; settings: single subcutaneous injection, three doses (escitalopram 0.240-3.90 mg/kg; paroxetine 0.270-4.40 mg/kg); ref Kreilgaard et al., 2008; cited from earlier work
P-glycoprotein (P-gp) = settings: cited from earlier work
[4] = significant first-pass metabolism; no reference given; cited from earlier work
[5] = Lauroglycol 90 (liquid lipid), in Lauroglycol 90
[6] = oleic acid (liquid lipid), in oleic acid
[7] = brain, inhaled or intranasal, 2.38 mg/kg
[8] = lung, inhaled or intranasal, 2.38 mg/kg
[9] = plasma, inhaled or intranasal, 2.38 mg/kg
[10] = inhaled or intranasal, paroxetine, brain, IN free drug, 2.38 mg/kg
[11] = inhaled or intranasal, paroxetine, lung, IN free drug, 2.38 mg/kg
[12] = inhaled or intranasal, paroxetine, plasma, IN free drug, 2.38 mg/kg
[13] = paroxetine, brain, IV free drug, 2.38 mg/kg
[14] = paroxetine, lung, IV free drug, 2.38 mg/kg
[15] = paroxetine, plasma, IV free drug, 2.38 mg/kg
[16] = paroxetine, IN free drug vs IV, 2.38 mg/kg

CN(C)CCC[C@@]1(c2ccc(F)cc2)OCc2cc(C#N)ccc21 [Escitalopram, escitalopram oxalate]
solubility at 24 h ([1]; Labrafac PG (liquid lipid), in Labrafac PG, n.d. = not detected): 1.34 ± 1.12 mg/mL
solubility at 24 h ([1]; Labrasol (liquid lipid), in Labrasol): 14.7 ± 14 mg/mL
solubility at 24 h [1, 5]: 6.91 ± 0.13 mg/mL
solubility at 24 h [1, 6]: 0.84 ± 0.12 mg/mL
Cmax [2, 7]: 133 ng/g
Tmax [2, 7]: 60 min
Cmax ([2]; brain, iv, 2.38 mg/kg): 511 ng/g
Tmax ([2]; brain, iv, 2.38 mg/kg): 15 min
Kp ([2]; brain/plasma, iv, 2.38 mg/kg, read-out: AUCtbrain/AUCtplasma): 0.871
Kp ([2]; brain/plasma, other: intranasal (IN), 2.38 mg/kg, read-out: AUCtbrain/AUCtplasma): 0.86
Cmax [2, 8]: 2310 ng/g
Tmax [2, 8]: 30 min
Cmax ([2]; lung, iv, 2.38 mg/kg): 1020 ng/g
Tmax ([2]; lung, iv, 2.38 mg/kg): 60 min
Kp ([2]; lung/plasma, iv, 2.38 mg/kg, read-out: AUCtlung/AUCtplasma): 2.45
Kp ([2]; lung/plasma, other: intranasal (IN), 2.38 mg/kg, read-out: AUCtlung/AUCtplasma): 10.6
AUC(0-t) [2, 9]: 0.507 µg·h/mL
Cmax [2, 9]: 0.55 µg/mL
Tmax [2, 9]: 5 min
AUC(0-t) ([2]; plasma, iv, 2.38 mg/kg): 1.15 µg·h/mL
Cmax ([2]; plasma, iv, 2.38 mg/kg): 0.482 µg/mL
Tmax ([2]; plasma, iv, 2.38 mg/kg): 5 min
AUCt ([2]; escitalopram, brain, IN free drug, 2.38 mg/kg): 26.2 ^c µg.min/g
AUCt ([2]; escitalopram, brain, IV free drug, 2.38 mg/kg): 59.8 ^c µg.min/g
AUCt ([2]; escitalopram, lung, IN free drug, 2.38 mg/kg): 321 ^c µg.min/g
AUCt ([2]; escitalopram, lung, IN free drug, 2.38 mg/kg, listed as escitalopram): 168 µg·min/g
AUCt ([2]; escitalopram, lung, IV free drug, 2.38 mg/kg): 168 ^c µg.min/g
AUCt ([2]; escitalopram, lung, IV free drug, 2.38 mg/kg, listed as escitalopram): 321 µg·min/g
lung Cmax after free drug IN administration, times superior to BorNLC IN ([2]; escitalopram, lung, free IN vs BorNLC IN): 3.8 times
lung Cmax after free drug IN administration, times superior to IV ([2]; escitalopram, lung, free IN vs IV): 2.3 times
tmax in the plasma [3]: 3.00 to 5.40 min

Fc1ccc([C@@H]2CCNC[C@H]2COc2ccc3c(c2)OCO3)cc1 [Paroxetine, Paroxetine hydrochloride]
solubility at 24 h [1, 5]: 13.8 ± 1.26 mg/mL
solubility ([1]; in Labrasol): 24.0 ± 30.5 mg/mL
solubility at 24 h [1, 6]: 1.07 ± 0.58 mg/mL
Kp ([2]; brain/plasma, iv, 2.38 mg/kg, paroxetine, IV free drug, 2.38 mg/kg, read-out: AUCtbrain/AUCtplasma): 0.35
Kp ([2]; brain/plasma, other: intranasal (IN), 2.38 mg/kg, paroxetine, IN free drug, 2.38 mg/kg, read-out: AUCtbrain/AUCtplasma): 0.82
Cmax [2, 10]: 283 ng/g
Tmax [2, 10]: 120 min
Cmax [2, 11]: 2820 ng/g
Tmax [2, 11]: 60 min
AUC(0-t) [2, 12]: 1.39 µg·h/mL
Cmax [2, 12]: 0.696 µg/mL
Kp ([2]; lung/plasma, iv, 2.38 mg/kg, paroxetine, IV free drug, 2.38 mg/kg, read-out: AUCtlung/AUCtplasma): 2.63
Kp ([2]; lung/plasma, other: intranasal, 2.38 mg/kg, paroxetine, IN free drug, 2.38 mg/kg, read-out: AUCtlung/AUCtplasma): 8.4
Tmax [2, 9]: 5 min
Tmax ([2]; plasma, iv, 2.38 mg/kg): 5 min
Cmax [2, 13]: 233 ng/g
Tmax [2, 13]: 120 min
Cmax [2, 14]: 1010 ng/g
Tmax [2, 14]: 30 min
AUC(0-t) [2, 15]: 1.63 µg·h/mL
Cmax [2, 15]: 0.82 µg/mL
DTE (drug targeting efficiency) [2, 16]: 232%
DTP (direct transport percentage) [2, 16]: 56.9%
AUCtbrain/AUCtplasma ([2]; paroxetine, IN free drug, 2.38 mg/kg): 0.821
AUCtbrain/AUCtplasma ([2]; paroxetine, IV free drug, 2.38 mg/kg): 0.354
AUCt ([2]; paroxetine, brain, IN free drug, 2.38 mg/kg): 68.2 ^c µg min/g
higher brain exposure (given by AUCt) than that of IV injection ([2]; paroxetine, brain, IN vs IV): 49%
AUCt [2, 13]: 34.6 ^c µg min/g
AUCt ([2]; paroxetine, lung, IN free drug, 2.38 mg/kg): 699 ^c µg min/g
AUCt [2, 14]: 257 ^c µg min/g
P-gp IC50 relative to therapeutic plasma concentrations (P-glycoprotein (P-gp); IC50 higher than therapeutic plasma concentrations, ref Hiemke et al., 2018): about 150 fold
P-gp inhibition IC50 (P-glycoprotein (P-gp); in vitro, ref Feng et al., 2008): 10 mg/L
oral bioavailability [4]: 30 to 60%
tmax in the plasma [3]: 4.80 to 5.40 min

From PMC8675330 (Frontiers in Pharmacology, 2021)
